# Reference: patent US10711041B2, “Lyophilisate containing a cyclic peptide of formula X1-[sequence]-X2” (priority 2013, dated 2020)
# Columns and labels:
# [1] = Stability of the aqueous solution before inhalation (visual inspection, reverse HPLC); type: physicochemical
# Procedure: For that reason the stability of an aqueous solution was investigated exemplarily. The ready to use-solution therefore was stored either in a syringe commonly used in laboratory, at 2 to 8° C. for 7 days, or in a container of a nebulizer at 25° C. for 24 hours. […] The methods used therefore were analytical methods commonly used in laboratory, as for example the visual inspection, as well as analysis by means of reverse HPLC.
# [2] = molecular target: T1, amilorid-sensitive Sodium Ion Channel (ENaC) (Homo sapiens, UniProt P37088); assay: Biological activity of condensed aerosol by Patch Clamp in A549 cells; type: cell-based; conditions: Mesh-Type nebulizer, aerosol condensed in cooling trap
# T1 construct: Macroscopic Sodium Ion Currents were derived from human lung epithelian cells A549; endogenous in cells; host or cells: A549 human lung epithelial cells
# T1 sequence (P37088 1-669): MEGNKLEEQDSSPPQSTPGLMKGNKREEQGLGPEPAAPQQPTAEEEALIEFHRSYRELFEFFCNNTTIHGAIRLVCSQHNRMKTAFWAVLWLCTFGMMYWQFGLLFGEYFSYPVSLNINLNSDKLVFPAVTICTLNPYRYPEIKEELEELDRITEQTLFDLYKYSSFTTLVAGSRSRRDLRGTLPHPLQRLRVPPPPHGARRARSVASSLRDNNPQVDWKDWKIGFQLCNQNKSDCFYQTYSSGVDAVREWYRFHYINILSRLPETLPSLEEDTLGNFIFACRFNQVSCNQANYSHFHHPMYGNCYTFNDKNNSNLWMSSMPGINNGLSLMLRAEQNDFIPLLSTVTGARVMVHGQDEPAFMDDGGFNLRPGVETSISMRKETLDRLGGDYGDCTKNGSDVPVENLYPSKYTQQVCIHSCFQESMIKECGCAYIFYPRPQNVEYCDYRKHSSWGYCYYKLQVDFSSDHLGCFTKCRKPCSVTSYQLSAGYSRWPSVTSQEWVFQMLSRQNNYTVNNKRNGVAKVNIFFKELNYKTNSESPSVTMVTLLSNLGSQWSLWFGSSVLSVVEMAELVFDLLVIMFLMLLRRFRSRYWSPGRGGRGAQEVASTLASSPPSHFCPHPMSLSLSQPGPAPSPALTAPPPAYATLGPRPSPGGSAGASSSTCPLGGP
# T1 sequence (P51168 1-640 partner): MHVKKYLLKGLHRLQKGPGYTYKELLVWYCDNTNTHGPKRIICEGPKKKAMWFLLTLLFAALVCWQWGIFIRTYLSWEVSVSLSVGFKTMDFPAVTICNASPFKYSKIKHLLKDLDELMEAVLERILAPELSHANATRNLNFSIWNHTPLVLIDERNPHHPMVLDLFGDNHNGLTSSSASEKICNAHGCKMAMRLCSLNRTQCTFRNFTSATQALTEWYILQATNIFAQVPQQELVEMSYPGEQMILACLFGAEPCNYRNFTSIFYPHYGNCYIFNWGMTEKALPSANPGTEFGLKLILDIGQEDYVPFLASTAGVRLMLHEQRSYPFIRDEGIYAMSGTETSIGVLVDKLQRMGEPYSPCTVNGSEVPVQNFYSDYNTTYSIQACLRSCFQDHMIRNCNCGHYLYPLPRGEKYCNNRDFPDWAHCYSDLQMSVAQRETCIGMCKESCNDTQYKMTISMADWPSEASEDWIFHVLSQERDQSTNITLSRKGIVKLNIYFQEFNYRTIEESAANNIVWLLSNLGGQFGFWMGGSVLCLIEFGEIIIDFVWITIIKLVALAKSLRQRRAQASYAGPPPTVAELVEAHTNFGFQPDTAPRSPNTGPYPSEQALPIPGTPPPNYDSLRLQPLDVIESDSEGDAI
# T1 sequence (P51170 1-649 partner): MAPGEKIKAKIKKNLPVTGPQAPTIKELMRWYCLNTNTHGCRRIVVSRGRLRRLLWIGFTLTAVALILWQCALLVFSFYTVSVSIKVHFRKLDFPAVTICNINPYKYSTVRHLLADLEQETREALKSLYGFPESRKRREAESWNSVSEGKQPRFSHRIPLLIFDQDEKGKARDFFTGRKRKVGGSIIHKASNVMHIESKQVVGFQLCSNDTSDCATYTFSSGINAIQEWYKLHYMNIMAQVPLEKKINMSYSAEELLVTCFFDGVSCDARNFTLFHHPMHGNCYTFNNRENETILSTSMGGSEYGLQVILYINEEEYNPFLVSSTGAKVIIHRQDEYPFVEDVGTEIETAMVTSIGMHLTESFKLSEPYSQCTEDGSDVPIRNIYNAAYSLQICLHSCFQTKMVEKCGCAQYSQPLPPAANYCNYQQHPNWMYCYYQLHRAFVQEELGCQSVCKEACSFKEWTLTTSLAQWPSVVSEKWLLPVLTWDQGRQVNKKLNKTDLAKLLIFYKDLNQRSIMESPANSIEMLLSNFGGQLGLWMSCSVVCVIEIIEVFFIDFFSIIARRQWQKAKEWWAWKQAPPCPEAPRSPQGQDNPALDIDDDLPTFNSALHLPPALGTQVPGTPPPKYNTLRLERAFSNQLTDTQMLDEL
# Procedure: Since proteins and peptides occasionally may be rather unstable, it was investigated, whether the cyclic peptides of amino acid sequence SEQ ID NO:1 to SEQ ID NO:6 in dissolved preparation during conversion into an aerosol remain stable. For that the cyclic peptides were dissolved in water as described in example 4. After filling into the storage container of a nebulizer the aqueous solution of the cyclic peptides were converted into an aerosol. For that a “Mesh-Type” nebulizer was used. The biological activity of the collected aerosols was determined by means of the Patch Clamp method. Thereby macroscopic currents of A549 cells were deduced in the “whole cell” configuration of the “Patch-clamp” technique, as described under “Electrophysiological Investigations of the Amilorid-sensitive Sodium Ion Channel (ENaC)”.
# [3] = Concentration in lung tissue and blood after aerosol inhalation, rat; type: in vivo; conditions: after inhalation of aerosol
# Procedure: The proof of a cyclic peptide of amino acid sequence SEQ ID NO:1 to SEQ ID NO:6 may take place in lung tissue of rats. For that exemplarily an aerosol was produced with a nebulizer from an aqueous solution of the cyclic peptide of amino acid sequence SEQ ID NO:1. The aerosol was inhaled by the experimental animal (72 mg/kg body weight). After termination of aerosol inhalation, the lung tissue, as well as the blood of the experimental animal was examined. By means of reverse HPLC/MS the concentration of the cyclic peptide of amino acid sequence SEQ ID NO:1 was determined Exemplarily, the cyclic peptide of amino acid sequence SEQ ID NO:1 could be detected in the lung tissue in a concentration of 1.2 μm/g after inhalation of 72 mg/kg body weight in sum. In contrast to that the cyclic peptide of amino acid sequence SEQ ID NO:1 could not be detected in the blood up to a detection limit of 0.1 μm/ml.
# [4] = laboratory syringe, 2 to 8° C., T = 0 to 7 days
# [5] = storage container of a nebulizer, 25° C., T = 0 to 24 hours
smiles,measurement,setting,value
C[C@@H]1NC(=O)CNC(=O)[C@H](CCC(=O)O)NC(=O)[C@@H]2CCCN2C(=O)[C@H]([C@@H](C)O)NC(=O)[C@H](CCC(=O)O)NC(=O)[C@H](CCCNC(=N)N)NC(=O)[C@H](CCC(N)=O)NC(=O)CNC(=O)[C@@H](N)CSSC[C@@H](C(=O)O)NC(=O)[C@H](Cc2ccc(O)cc2)NC(=O)[C@H](Cc2c[nH]c3ccccc23)NC(=O)[C@@H]2CCCN2C(=O)[C@H](CCCCN)NC(=O)[C@H](C)NC(=O)[C@H](CCC(=O)O)NC1=O [SEQ ID NO: 1],Purity of aqueous solution (stability study),"[1]; laboratory syringe, 2 to 8° C., T = 0",96.3%
same,Amount/contents of aqueous solution,[1]; [4],25 mg/mL
same,Appearance of aqueous solution,[1]; [4],clear solution
same,Purity of aqueous solution (stability study),"[1]; laboratory syringe, 2 to 8° C., T = 7 days",96.2%
same,Purity of aqueous solution (stability study),"[1]; storage container of a nebulizer, 25° C., T = 0",96.6%
same,Amount/contents of aqueous solution,[1]; [5],25 mg/mL
same,Appearance of aqueous solution,[1]; [5],clear solution
same,Purity of aqueous solution (stability study),"[1]; storage container of a nebulizer, 25° C., T = 24 hours",96.5%
same,biological stability during transformation into an aerosol,[2],"keeps its biological, as well as its chemical stability"
same,concentration in lung tissue,[3]; 72 mg/kg body weight in sum,1.2 μm/g
same,concentration in blood,"[3]; 72 mg/kg, detection limit",< 0.1 μm/ml
